Test results as given in US20230391881A1, “COMPOSITIONS AND METHODS FOR OVERCOMING DR5-INDUCED IMMUNE EVASION BY SOLID TUMORS” (University of Virginia Patent Foundation, priority 2020, published 2023).
*1 amine or outer side, *2 acyl side, *3 side chain or, on linkers, in order; H or OH if unused. Where a SMILES comes first, the peptide text is derived from it. Bridges are numbered along the chain shown (N, C = ends). Roman numbers before positions name the chains, in order. [ ]: non-standard residue; d: D form. The star is where a group is joined. Actinocin(9to1) = Cc1c2oc3c(C)ccc(C(=O)[*:1])c3nc-2c(C(=O)[*:2])c(N)c1=O; NMeV = CN[C@H](C(=O)O)C(C)C; Cbz = O=C(OCc1ccccc1)*; Sar = CNCC(=O)O

Legend:
4T1 tumors = assay: Tumor regression in 4T1 syngeneic TNBC tumor models; format: in vivo, mouse; conditions: BALB/c mice, 4T1 tumors; MD5-1 50 μg i.p., GSK269962 2 mg/kg into the tumors (FIG. 4K)
Experimental: FIGS. 4A-4K. DR5 agonist activated ROCK1 functions to help PD-L1 surface mobilization. (FIGS. 4A and 4B) KMTR2 and lexatumumab treated MDA-MB-436 and OVCAR3 (respectively) lysates for indicated early time points were analyzed for caspase-8, caspase-3, ROCK1, pMLC, PARP, PD-L1 and CMTM6 etc. as indicated. Vertical arrows indicate sequential kinetics of caspase-8, ROCK1, and caspase-3 activation, arrows with “n.s.” below them indicate nonspecific band by ROCK1 antibody. (FIG. 4C) OVCAR3 cells were treated with pMLC activating ionophore A23187 (positive control) and lexatumumab ±ROCK1 inhibitors or ±rDR5 or ±rFOLR1. Lysates were later analyzed for ROCK1, pMLC, caspase-3 and PARP with GAPDH as loading control. (FIG. 4D) MDA-MB-436 and OVCAR3 cells were treated with indicated ROCK1 inhibitors 2 hours prior to DR5 agonist KMTR2 treatment. After 4 hours flow cytometry was used to analyze surface PD-L1. […] Relative luciferase signal was quantified and plotted after subtraction of background signal from untreated cells. […] Tumor volumes were quantified at indicated days by caliper measurements. […] Statistical significance in FIG. 4J was determined by unpaired student t-test and in FIG. 4K using two-tailed […] Wilcoxon Mann-Whitney test. […]
FIGS. 6A-6M. […] CD8/CD45 and CD4/CD45 expressing cells were measured by flow cytometry. […] Harvested tumors homogenized followed by quantitation. […]

PD-L1-PD-1 interaction = assay: PD-1/PD-L1 tumor cell-Jurkat cell co-culture luciferase reporter assay; format: cell-based, human; conditions: tumor cells pretreated with ROCK1 inhibitor then DR5 agonist
Experimental: PD-1/PD-L1 reporter assay. […] The original kit contains PD-1 effector Jurkat T cells stably express human PD-1 and NFAT-induced luciferase, while PD-L1 aAPC/CHO-K1 cells stably express human PD-L1 and a cell surface protein designed to activate cognate TCRs in an antigen-independent manner. […] Antibodies blocking PD-1-PD-L1 interaction removes inhibitory signals, resulting in luciferase activation. […] Next day, medium was removed from the culture plate and cells were treated with diluted DR5 agonist antibodies. […] Glo response NFAT-luc2/PD1 Jurkat cells (Promega) were re-suspended in assay buffer and incubated with 1 μg/ml anti-CD3 for 2 hours to activate PD1 Jurkat cells. […] After 6 hours of co-culture, assay plates were removed from the incubator; content of each well were mixed thoroughly with the help of multi-channel pipette and then transferred to a white opaque assay plate. 10 mg/ml luciferase reagent was prepared and loaded into the plate reader, which injects 50 μl reagent in each well and measures luminescence immediately. Data was analyzed using Microsoft Excel software. Wherever indicated, inhibitors (ERK, STAT3, Caspase, ROCK1 etc.) were added 2-3 hrs prior to DR5 agonist antibodies in 96 well culture of tumors as described herein.

PD-L1 = assay: Western blotting / flow cytometry of PD-L1 and regulators in tumor cells; format: cell-based, human; conditions: for reversal of PD-L1 stability generated by DR5 agonists: MDA-MB-436 cells pretreated 0-8 hours with inhibitor, then DR5 agonist 6 hours
Experimental: Western Blotting. Cells were cultured overnight in tissue culture-treated 6-well plates prior to treatment. After antibody treatment for 48 hours or another indicated time, cells were rinsed with PBS and then lysed with RIPA buffer supplemented with protease inhibitor cocktail (ThermoFisher Scientific). Centrifugation at 14000 rpm for 30 minutes cleared lysates and protein was quantified by PIERCE™ BCA Protein Assay Kit (ThermoFisher Scientific). Western blotting was performed using the Bio-Rad SDS-PAGE Gel system. Briefly, 30 μg of protein was resolved on 10% Bis-Tris gels and then transferred onto PVDF membrane. Membranes were blocked for one hour at room temperature in TBS+0.1% Tween (TBST) with 5% non-fat dry milk. Membranes were probed overnight at 4° C. with primary antibodies. Membranes were washed three times in TBST and then incubated with anti-rabbit or anti-mouse secondary antibodies (1/10,000 dilution, coupled to peroxidase) for 1 hour at room temperature. Membranes were then washed three times with TBST and immunocomplexes were detected with SUPERSIGNAL™ West Pico Chemiluminescent Substrate (ThermoFisher Scientific). Images were taken using a Bio-Rad Gel Doc Imager system.
(§1) Flow cytometry. The cell surface expression of PD-L1, CD47, huDR5, muDR5, CD8, CD4, CD25 etc. was analyzed by flow cytometry. Overnight grown tumors were trypsinized and suspended in FACS buffer (PBS containing 2% FBS). Single cell suspensions were then incubated with primary DR4/DR5 antibodies for 1 hour at 4° C. with gentle mixing. Following wash with FACS buffer, the cells were then incubated with fluorescently labeled anti-Rabbit antibody for 1 hour. Cells were washed and flow cytometry was performed using a BD FACSCALIBUR™ flow cytometer. The data was analyzed by FCS Express (De Novo Software, Los Angeles, California, United States of America) and FlowJo.

MDA-MB-436 cells = assay: Flow cytometry of surface PD-L1 on tumor cells treated with DR5 agonist antibodies (FIG. 20B); format: cell-based, human
Experimental: FIGS. 20A-20C. (FIG. 20A) 3 biological replicates of total PD-L1 and GAPDH from triple negative breast cancer cell (MDAMB-436) and ovarian cell (OVCAR-3) lysates treated with lexatumumab for 6 hours. (FIG. 20B) Raw mean fluorescent intensity (MFI) and % positive PD-L1 counts from the cells treated with indicated DR5 agonist antibodies. MFI values are shown on the top of solid color bars. There are multiple instances (shown on the top) where despite having lower % positive PD-L1 population, MFI values were higher after indicated DR5 agonist treatments. As an example, in MDA-MB-436 cells treated with tigatuzumab and lexatumumab, lexatumumab treated cells had higher % positive PD-L1 population (9.32 vs 11.97), however MFI was higher in tigatuzumab treated population (107.54 vs 45.87). (FIG. 20C) KMTR2 treated (50 μg, 4 doses) UCD52 TNBC PDX tumors were stained for PD-L1 using immunohistochemistry (IHC). 3 additional representative images are shown. Also see FIG. 1L.
as §1
PD-L1 surface expression analysis of tumor derived cells. The cell surface expression of PD-L1 from tumor-derived cell was analyzed by flow cytometry. Isolated cells were suspended in FACS buffer (PBS containing 1% FBS). The single cell suspension was then incubated with primary PD-L1 antibodies (1:400 dilution) for 1 hour at 4° C. with gentle mixing. […] Following 3 times wash with FACS buffer, the cells were then incubated with fluorescently labeled (alexa 488) anti-Rabbit secondary antibody for 1 hour. Cells were then washed 3-4 times with FACS buffer and flow cytometry was performed using BD FACSCALIBUR™. The data was analyzed by FCS Express (De Novo Software) and FlowJo software.

Compound: CCn1c(-c2nonc2N)nc2cnc(Oc3cccc(NC(=O)c4ccc(OCCN5CCOCC5)cc4)c3)cc21 [GSK269962, N-(3-{[2-(4-Amino-1,2,5-oxadiazol-3-yl)-1-ethyl-1H-imidazo[4,5-c]pyridin-6-yl]oxy}phenyl)-4-[2-(morpholin-4-yl)ethoxy]benzamide]
- Tumor regression efficacy (tumor volume) (4T1 tumors): ineffective
- luciferase activity in co-culture reporter assay in presence of ROCK1 inhibitors (PD-L1-PD-1 interaction): Increased average luciferase intensity

Compound: CC1=C(C(=O)Nc2cc3cn[nH]c3cc2F)C(c2ccc(C(F)(F)F)cc2)CC(=O)N1 (centres unmarked) [GSK429286, N-(6-Fluoro-1H-indazol-5-yl)-6-methyl-2-oxo-4-[4-(trifluoromethyl)phenyl]-3,4-dihydro-1H-pyridine-5-carboxamide]
- luciferase activity in co-culture reporter assay in presence of ROCK1 inhibitors (PD-L1-PD-1 interaction): Increased average luciferase intensity

Compound: CC(C)C[C@@H](C=O)NC(=O)[C@H](CC(C)C)NC(=O)[C@H](CC(C)C)NC(=O)OCc1ccccc1 [MG132] (Cbz-Leu-Leu-Leu-aldehyde)
- PD-L1 stability with proteasome inhibition (MG132) (PD-L1; cell surface or total lysates): increased overall PD-L1

Compound: C[C@@H]1C[C@@H]([C@H](O)CC2CC(=O)NC(=O)C2)C(=O)[C@@H](C)C1 [Cycloheximide]
- reversal of PD-L1 stability generated by DR5 agonists (PD-L1): did not also reversed PD-L1 stability

Compound: tigatuzumab: Monospecific Antibody, Human DR5 activator; VL and VH SEQ ID NOs: 3 and 4
- PD-L1 mean fluorescent intensity (MFI) (MDA-MB-436 cells; MDA-MB-436 cells treated with DR5 agonist antibody (FIG. 20B)): 107.54
- % positive PD-L1 population (MDA-MB-436 cells; MDA-MB-436 cells treated with DR5 agonist antibody, raw flow cytometry counts (FIG. 20B)): 9.32%

Compound: Cc1c2oc3c(C)ccc(C(=O)N[C@@H]4C(=O)N[C@H](C(C)C)C(=O)N5CCC[C@H]5C(=O)N(C)CC(=O)N(C)[C@@H](C(C)C)C(=O)O[C@@H]4C)c3nc-2c(C(=O)N[C@@H]2C(=O)N[C@H](C(C)C)C(=O)N3CCC[C@H]3C(=O)N(C)CC(=O)N(C)[C@@H](C(C)C)C(=O)O[C@@H]2C)c(N)c1=O [actinomysin-D] (I: T[dV]P[Sar][NMeV] / II: T[dV]P[Sar][NMeV]; ester I:1-I:C, II:1-II:C; linker I:N-II:N via Actinocin(9to1))
- reversal of PD-L1 stability generated by DR5 agonists (PD-L1): did not also reversed PD-L1 stability
